# Assays:
# [1] = system: DnaK Trp102 (NBD-SBD allosteric coupling); conditions: cited from earlier work
# SBD = conditions: cited from earlier work
# [2] = system: dnak deletion strain BB205; test: Growth tests in dnak deletion strain BB205 at 37°C; format: cell-based, E. coli; conditions: serial dilutions spotted on LB plates, 20 μM IPTG, one overnight
# DnaK ATPase = conditions: ref [16],[28]; cited from earlier work
molecule,measurement,setting,value
Nc1ncnc2c1ncn2[C@@H]1O[C@H](COP(=O)(O)OP(=O)(O)OP(=O)(O)O)[C@@H](O)[C@H]1O [ATP],ATP-induced change of tryptophan fluorescence,"[1]; full-length DnaK, relative to apo and ADP-bound forms, ref [16]",blue-shift and fluorescence quenching
same,Binding and release rates of substrates upon ATP binding,SBD; Hsp70 (mainly DnaK),"greatly accelerated, more for release than binding"
same,Reduction of affinity of SBD for its substrates upon ATP binding,"SBD; ref [19],[20]",two to three
D100L: DnaK mutated individually at Asp100,in vivo DnaK function / activity in growth tests,[2],moderate growth phenotype
G461P,in vivo DnaK function / activity in growth tests,[2],compromised in vivo DnaK function modestly
G468P,in vivo DnaK function / activity in growth tests,[2],compromised in vivo DnaK function modestly
T199A: well-characterized mutation that abolishes ATPase activity but maintains allosteric coupling,Allosteric coupling of mutant,"[1]; ref [16],[28]",maintains allosteric coupling
same,ATPase activity of mutant,DnaK ATPase,abolishes ATPase activity
